Source: the NIST ThermoML archive (doi:10.1021/je060271a)
“And” between values parts separate entries of the source, which are not always exact repeats. Identical values can stand only once. ± gives the expanded uncertainty stated by the source.

Conditions: Liquid, Vibrating tube method

CCCCCCC(=O)OCC(COC(=O)CCCCCC)(COC(=O)CCCCCC)COC(=O)CCCCCC [pentaerythritol tetraheptanoate]
Conditions	mass density
303.15 K, 31425 kPa	989 ± 1.2 kg/m3
303.15 K, 31458 kPa	989.1 ± 1.2 kg/m3
303.15 K, 31487 kPa	989.1 ± 1.2 kg/m3
303.15 K, 31515 kPa	989 ± 1.2 kg/m3
303.15 K, 31543 kPa	989.1 ± 1.2 kg/m3
303.15 K, 31577 kPa	989.1 ± 1.2 kg/m3
303.15 K, 31605 kPa	989 ± 1.2 kg/m3
303.15 K, 31639 kPa	989.1 ± 1.2 kg/m3
303.15 K, 31667 kPa	989.1 ± 1.2 kg/m3
303.15 K, 31696 kPa	989.1 ± 1.2 kg/m3
303.15 K, 31724 kPa	989.2 ± 1.2 kg/m3
303.15 K, 31759 kPa	989.2 ± 1.2 kg/m3
303.15 K, 31788 kPa	989.2 ± 1.2 kg/m3
303.15 K, 31817 kPa	989.3 ± 1.2 kg/m3
303.15 K, 31846 kPa	989.3 ± 1.2 kg/m3
303.15 K, 31880 kPa	989.3 ± 1.2 kg/m3
303.15 K, 31909 kPa	989.3 ± 1.2 kg/m3
303.15 K, 31938 kPa	989.3 ± 1.2 kg/m3
303.15 K, 31973 kPa	989.4 ± 1.2 kg/m3
303.15 K, 32002 kPa	989.3 ± 1.2 kg/m3
303.15 K, 32036 kPa	989.4 ± 1.2 kg/m3
303.15 K, 32065 kPa	989.4 ± 1.2 kg/m3
303.15 K, 32094 kPa	989.3 ± 1.2 kg/m3
303.15 K, 32128 kPa	989.5 ± 1.2 kg/m3
303.15 K, 32158 kPa	989.4 ± 1.2 kg/m3
303.15 K, 32186 kPa	989.4 ± 1.2 kg/m3
303.15 K, 32221 kPa	989.4 ± 1.2 kg/m3
303.15 K, 32250 kPa	989.5 ± 1.2 kg/m3
303.15 K, 32280 kPa	989.5 ± 1.2 kg/m3
303.15 K, 32316 kPa	989.5 ± 1.2 kg/m3
303.15 K, 32345 kPa	989.5 ± 1.2 kg/m3
303.15 K, 32375 kPa	989.4 ± 1.2 kg/m3
303.15 K, 32405 kPa	989.5 ± 1.2 kg/m3
303.15 K, 32440 kPa	989.6 ± 1.2 kg/m3
303.15 K, 32470 kPa	989.6 ± 1.2 kg/m3
303.15 K, 32500 kPa	989.5 ± 1.2 kg/m3
303.15 K, 32536 kPa	989.7 ± 1.2 kg/m3
303.15 K, 32566 kPa	989.6 ± 1.2 kg/m3
303.15 K, 32602 kPa	989.7 ± 1.2 kg/m3
303.15 K, 32632 kPa	989.6 ± 1.2 kg/m3
303.15 K, 32661 kPa	989.6 ± 1.2 kg/m3
303.15 K, 32691 kPa	989.7 ± 1.2 kg/m3
303.15 K, 32727 kPa	989.7 ± 1.2 kg/m3
303.15 K, 32757 kPa	989.6 ± 1.2 kg/m3
303.15 K, 32787 kPa	989.8 ± 1.2 kg/m3
303.15 K, 32824 kPa	989.8 ± 1.2 kg/m3
303.15 K, 32854 kPa	989.8 ± 1.2 kg/m3
303.15 K, 32890 kPa	989.8 ± 1.2 kg/m3
303.15 K, 32920 kPa	989.7 ± 1.2 kg/m3
303.15 K, 32951 kPa	989.7 ± 1.2 kg/m3
303.15 K, 32984 kPa	989.9 ± 1.2 kg/m3
303.15 K, 33014 kPa	989.7 ± 1.2 kg/m3
303.15 K, 33051 kPa	989.9 ± 1.2 kg/m3
303.15 K, 33082 kPa	990 ± 1.2 kg/m3
303.15 K, 33112 kPa	989.9 ± 1.2 kg/m3
303.15 K, 33149 kPa	990 ± 1.2 kg/m3
303.15 K, 33180 kPa	990 ± 1.2 kg/m3
303.15 K, 33217 kPa	990 ± 1.2 kg/m3
303.15 K, 33248 kPa	989.9 ± 1.2 kg/m3
303.15 K, 33279 kPa	990.1 ± 1.2 kg/m3
303.15 K, 33317 kPa	990 ± 1.2 kg/m3
303.15 K, 33348 kPa	990 ± 1.2 kg/m3
303.15 K, 33381 kPa	990 ± 1.2 kg/m3
303.15 K, 33413 kPa	990 ± 1.2 kg/m3
303.15 K, 33450 kPa	990.1 ± 1.2 kg/m3
303.15 K, 33482 kPa	990 ± 1.2 kg/m3
303.15 K, 33514 kPa	990.2 ± 1.2 kg/m3
303.15 K, 33546 kPa	990.1 ± 1.2 kg/m3
303.15 K, 33584 kPa	990.1 ± 1.2 kg/m3
303.15 K, 33616 kPa	990.2 ± 1.2 kg/m3
303.15 K, 33648 kPa	990.2 ± 1.2 kg/m3
303.15 K, 33686 kPa	990.2 ± 1.2 kg/m3
303.15 K, 33718 kPa	990.2 ± 1.2 kg/m3
303.15 K, 33756 kPa	990.2 ± 1.2 kg/m3
303.15 K, 33788 kPa	990.2 ± 1.2 kg/m3
303.15 K, 33820 kPa	990.3 ± 1.2 kg/m3
303.15 K, 33852 kPa	990.3 ± 1.2 kg/m3
303.15 K, 33890 kPa	990.4 ± 1.2 kg/m3
303.15 K, 33921 kPa	990.4 ± 1.2 kg/m3
303.15 K, 33952 kPa	990.5 ± 1.2 kg/m3
303.15 K, 33993 kPa	990.4 ± 1.2 kg/m3
303.15 K, 34038 kPa	990.4 ± 1.2 kg/m3
303.15 K, 34093 kPa	990.4 ± 1.2 kg/m3
303.15 K, 34123 kPa	990.4 ± 1.2 kg/m3
303.15 K, 34208 kPa	990.5 ± 1.2 kg/m3
303.15 K, 34249 kPa	990.5 ± 1.2 kg/m3
303.15 K, 34280 kPa	990.6 ± 1.2 kg/m3
303.15 K, 34305 kPa	990.5 ± 1.2 kg/m3
303.15 K, 34336 kPa	990.6 ± 1.2 kg/m3
303.15 K, 34363 kPa	990.5 ± 1.2 kg/m3
303.15 K, 34390 kPa	990.7 ± 1.2 kg/m3
303.15 K, 34423 kPa	990.6 ± 1.2 kg/m3
303.15 K, 34452 kPa	990.7 ± 1.2 kg/m3
303.15 K, 34482 kPa	990.6 ± 1.2 kg/m3
303.15 K, 34512 kPa	990.7 ± 1.2 kg/m3
303.15 K, 34545 kPa	990.6 ± 1.2 kg/m3
303.15 K, 34553 kPa	990.8 ± 1.2 kg/m3
303.15 K, 34554 kPa	990.7 ± 1.2 kg/m3
303.15 K, 34556 kPa	990.7 ± 1.2 kg/m3
323.14 K, 99.4 kPa	955.6 ± 1.2 kg/m3 and 955.7 ± 1.2 kg/m3
323.14 K, 99.5 kPa	955.7 ± 1.2 kg/m3 and 955.6 ± 1.2 kg/m3
323.14 K, 99.7 kPa	955.7 ± 1.2 kg/m3 [middle of 4 runs]
323.14 K, 99.9 kPa	955.7 ± 1.2 kg/m3 [middle of 4 runs]
323.14 K, 100 kPa	955.7 ± 1.2 kg/m3 and 955.8 ± 1.2 kg/m3 and 955.6 ± 1.2 kg/m3
323.14 K, 100.1 kPa	955.7 ± 1.2 kg/m3
323.14 K, 100.2 kPa	955.6 ± 1.2 kg/m3 and 955.7 ± 1.2 kg/m3
323.14 K, 100.4 kPa	955.7 ± 1.2 kg/m3
323.14 K, 101.1 kPa	955.6 ± 1.2 kg/m3
323.14 K, 135.4 kPa	955.7 ± 1.2 kg/m3
323.14 K, 135.5 kPa	955.7 ± 1.2 kg/m3
323.14 K, 137.4 kPa	955.7 ± 1.2 kg/m3
